Data as given in patent publication US20250049914A1, “STEROID ACID-PEPTIDE BASED INTRACELLULAR CARGO DELIVERY” (DEFENCE THERAPEUTICS INC., priority 2021, published 2025).
Where no end group is shown, it is not given here.

Columns and labels:
MSCs [1] = assay: Endosomal escape, apoptosis assay with recombinant cytochrome C; format: cell-based, mouse; details: CA-hnRNPA1 50 μM, 6 h
Protocol: Endosomal leakage was assessed using an apoptosis assay. Briefly, 10′ MSCs were first supplemented with 10 mg/mL of exogenous rCyt-C for 6 h at 37° C. in the presence or absence of CA-hnRNPA1 (50 μM). Once the incubation period completed, the cells were collected using Accutase®, washed with ice cold PBS, then stained for Annexin-V according to manufacturer's instructions prior to analysis using BD FACS Diva™ on CANTOII™.

MSCs [2] = assay: Cytokine and chemokine analysis (Luminex); format: cell-based, mouse; details: 50 μM CA-hnRNPA1, 6 h
Protocol: For cytokine and chemokine profiling, 15 cm cell culture dishes containing 80-90% confluent MSCs were grown in serum-free AMEM for 24 h at 37° C. and 5% CO2. MSCs were then treated with 50 μM of CA-hnRNPA1 in serum-free AMEM for 6 h. The supernatant was collected and fresh serum-free AMEM was replenished, without CA-hnRNPA1. After 24 h of the initial CA-hnRNPA1 treatment, the supernatant was collected and gathered with the previous one collected. Collected supernatants were then concentrated using the Amicon Ultra-4™ centrifugal filters (3000 NMWL) for 1 h at 4° C. Collected concentrates (80×) were then frozen at −80° C. until shipped to EveTechnologies™ (Calgary, AB, Canada) for cytokine/chemokine assessment by […].

[3] = tested on: mesenchymal stromal cells (MSCs); assay: OVA-AF647 intracellular delivery, flow cytometry; format: cell-based; details: OVA-AF647 mixed with 45 μM conjugate, nine hours, vs cargo alone
Protocol: Mesenchymal stromal cells (MSCs) were incubated with either unconjugated fluorescently labeled OVA-AF647 alone or mixed with 45 μM of CA-HnRPA1 NLS steroid acid-peptide for nine hours and then intracellular OVA-AF647 delivery was assessed by flow cytometry as described in Example 1. […] The experiment was repeated with DQ™ OVA as cargo to evaluate the intracellular fate of the cargo delivered upon coincubation with CA-HnRPA1 NLS, as described in Example 4.

MSCs [4] = assay: Flow cytometry assessment of ROS production; format: cell-based, mouse; details: WT MSCs
Text: Dp44mt was used as a positive control. […] For FIGS. 19A-19C, n=6/group with *P<0.05, **P<0.01 and ***P<0.001.
Next, the mechanism involved in cross presentation enhancement of steroid acid-peptide conjugates was further dissected.

WT MSCs = assay: Antigen cross-presentation assay on wild-type MSCs with B3Z cells; format: cell-based, mouse
Protocol: In order to generate Bone marrow (BM)-derived mouse MSCs, the femurs of 6-8-week-old female Balb/c or C57BL/6 mice were isolated and flushed with Alpha Modification of Eagle's Medium (AMEM) supplemented with 10% FBS and 50 U/mL Penicillin-Streptomycin in a 10 cm cell culture dish, then incubated at 37° C. Two days later, non-adherent cells were removed and the media replaced every 3 to 4 days until plastic-adherent cells reached 80% confluency. The generated cells were detached using 0.05% trypsin and expanded until a uniform MSC population was obtained. The generated MSCs were validated for their innate phenotype by flow-cytometry for the expression of CD44, CD45, CD73, and CD90. The cells were frozen in liquid nitrogen until use.
To assess cross-presentation assay, 25×10^3 cells MSCs were seeded per well in 24-well plate then pulsed with steroid acid peptide-conjugated for 6 h admixed with OVA. At the end of the pulsing period, the cells were washed to remove excess antigen then 5×10^4 B3Z cells. The cells were incubated for 17-19 hours prior to their lysis and incubation for another 4-6 hours at 37° C. with a CPRG solution. The optical density signal was detected at wavelength 570 using a SynergyH1™ microplate reader (Biotek, Winooski, VT, United States).
To determine whether a similar effect occurs in wild type (WT) (i.e., non-engineered) MSCs, BM-derived MSCs (Example 1) were used instead in the same cross presentation assay with B3Z responder cells.

CA-hnRNPA1: cholic acid conjugated to hnRNPA1 M9 NLS peptide CSNFGPMKGGNFGGRSSGPY (SEQ ID NO: 4) (not fully specified (N-terminus); also: cholic acid conjugate, site not given here)
endosomal membrane damage (co-treatment with recombinant cytochrome C) (MSCs [1]): endosomal membrane damaging properties
cytokine levels (Luminex) (MSCs [2]): increases in various cytokines
intracellular OVA-AF647 cargo delivery ([3]; listed as CA-HnRPA1): increased intracellular cargo delivery
intracellular OVA-AF647 cargo delivery ([3]; listed as CA-hnRPA1 M9 NLS): increased intracellular delivery
ROS production by MSCs (MSCs [4]): increase in ROS production
antigen cross-presentation with conjugate diluted in PBS or H2O (WT MSCs; WT MSCs): enhancement
OVA cross presentation by WT MSCs (B3Z) (WT MSCs; WT MSCs pulsed with OVA with or without conjugate): significantly enhanced
